How the values were obtained:
α-adrenergic receptor = α-adrenergic receptor antagonistic activity in the isolated rabbit aorta (norepinephrine-induced contraction); type: cell-based; conditions: for pA2: norepinephrine agonist, 37±0.5° C., pH 7.4, negative log of concentration requiring doubled norepinephrine
Protocol: Female rabbits, weighing 2 to 5 kg., are sacrificed by cervical dislocation. […] The aorta is placed on cylindrical sticks and cleaned of excess fat and connective tissue, then cut into 2 tissue segments approximately 20 mm in length. Each segment of aorta is then spiraled in strips 3.5 mm wide by turning the stick as a scapel is applied, while leaving a section of 2-3 mm at each end of the aorta section intact. The spiraled tissue is mounted in an aerated (as above) tissue bath of 10 ml. of Kreb's buffer and is attached to a Grass force transducer with an initial applied tension of 2 grams. The tissue is allowed to equilibrate in the tissue bath at a temperature of 37±0.5° C. until the tension on the force transducer stabilizes at 2 grams. A cumulative dose-response curve of contraction for the tissue is determined by contacting the tissue with 10 to 400 ul of the standard agonist norepinephrine in log doses of from 1×10^-8 to 1×10^-3M. […] The degree of antagonistic activity is determined by varying the concentration of the test compound and measuring its pA2 value, i.e., the negative log of the concentration of the test compound required to inhibit the norepinephrine response to the extent that the norepinephrine concentration must be doubled to obtain the maximum standard norepinephrine contractile response of the tissue.

α1-adrenergic receptor [1] = test: α1-adrenergic receptor selectivity and antagonism (general statements); conditions: result in words
α1-adrenergic receptor [2] = test: radioligand binding, displacement of [3H] prazosin in rat brain cortex tissue; conditions: for Ki: [3H] prazosin, calculated from IC50; for KIα2/KIα1: ratio of KI values, α1 selectivity
α2-adrenergic receptor = target: T1, α2-adrenergic receptor (Rattus norvegicus, UniProt P22909); test: biochemical; type: binding; conditions: rat brain cortex, [3H] yohimbine; calculated from IC50
T1 sequence (P22909 1-465): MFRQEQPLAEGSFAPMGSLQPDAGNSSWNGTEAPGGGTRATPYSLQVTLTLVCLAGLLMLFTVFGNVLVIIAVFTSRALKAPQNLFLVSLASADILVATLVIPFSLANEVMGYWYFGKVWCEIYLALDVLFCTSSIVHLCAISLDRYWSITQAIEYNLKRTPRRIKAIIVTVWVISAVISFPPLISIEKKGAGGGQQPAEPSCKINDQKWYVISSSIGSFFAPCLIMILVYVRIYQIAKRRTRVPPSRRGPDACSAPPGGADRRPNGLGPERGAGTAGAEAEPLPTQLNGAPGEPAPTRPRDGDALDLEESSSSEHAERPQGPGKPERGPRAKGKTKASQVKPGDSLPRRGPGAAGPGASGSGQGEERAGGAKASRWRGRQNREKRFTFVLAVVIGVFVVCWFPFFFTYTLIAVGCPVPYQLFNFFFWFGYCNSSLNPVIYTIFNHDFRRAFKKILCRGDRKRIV

[3] = system: spontaneously hypertensive rat (Okamoto rats); test: arterial blood pressure in the spontaneously hypertensive rat (tail cuff); type: in vivo; conditions: oral, 30 or 100 mg./kg.
Source text: An occluding cuff, operatively connected to a programmed sphygmomanometer, is placed over the tail of each rat of the group and retained near the tail base. […] A photocell is placed distal to the cuff to detect pulses resulting from the forward motion of blood flow with each heartbeat of the rat. As the pressure in the cuff increases, measurable pulses disappear at the point where the cuff pressure equals the arterial blood pressure. Measurable pulses reappear during deflation at approximately the same pressure, and arterial blood pressure is thereby established by cuff pressure at the point of pulse appearance. The heart rate is determined from the arterial pulse wave. Doses of 30 or 100 mg./kg. of the preferred compound of Example II are administered orally to each rat of the test groups and five interference-free signals are recorded on a Model 7 Grass polygraph for each rat at various measurement periods following administration.

α1-adrenergic receptor [4] = conditions: Federation Proceedings, Vol. 41, No. 5, Abst. No. 7064; cited from earlier work

SMILES | pA2 (α-adrenergic receptor) | selectivity for α1-adrenergic receptor sites (α1-adrenergic receptor [1]) | α1-antagonism (α1-adrenergic receptor [1]) | Ki (α1-adrenergic receptor [2]) [µM] | KIα2/KIα1 (α1-adrenergic receptor [2]) | Ki (α2-adrenergic receptor) [µM] | inhibition of increase in contractile force produced by norepinephrine (α-adrenergic receptor; result in words) | decrease of arterial blood pressure [3] | α1-adrenergic receptor inhibition upon photolysis (α1-adrenergic receptor [4])
COc1cc2nc(N3CCN(C(=O)c4ccco4)CC3)nc(N)c2cc1OC [prazosin, reference compound] | 8.58 |  |  |  |  |  |  |  | 
COc1cc2nc(N3CCN(C(=O)CCCCc4ccc(N)cc4)CC3)nc(N)c2cc1OC.Cl.Cl [Example II, 4-amino-6,7-dimethoxy-2-[4-(5-[4-aminophenyl]pentanoyl)-1-piperazinyl] quinazoline dihydrochloride] | 7.51 | high degree of selectivity for α1 -adrenergic receptor sites | produce α1 -antagonism | 0.0045 | 1,094.5 | 4.93 | inhibited | decrease the arterial blood pressure of rats of each group | 
COc1cc2nc(N3CCN(C(=O)c4ccc(N)cc4)CC3)nc(N)c2cc1OC [C, 2-(4-[4-aminobenzoyl]piperazin-1-yl)-4-amino-6,7-dimethoxyquinazoline, reference compound] | 7.45 |  |  | 0.017 | 730.9 | 12.4 |  |  | 
COc1cc2nc(N3CCN(C(=O)CCCCc4ccc(N=[N+]=[N-])cc4)CC3)nc(N)c2cc1OC [4-azidophenyl analog, 4-amino-6,7-dimethoxy-2-[4-(5-[4-azidophenyl]pentanoyl)-1-piperazinyl] quinazoline] |  | high degree of selectivity for α1 -adrenergic receptor sites | produce α1 -antagonism |  |  |  |  |  | 
COc1cc2nc(N3CCN(C(=O)c4ccc(N=[N+]=[N-])cc4)CC3)nc(N)c2cc1OC [2-(4-[4-azido-benzoyl]-piperazin-1-yl)-4-amino-6,7-dimethoxyquinazoline] |  |  |  |  |  |  |  |  | irreversible non-competitive α1 -adrenergic receptor inhibition

From patent publication US4440769A, “2-(4-Phenylalkanoylpiperazin-1-yl) quinazoline compounds, pharmaceutical compositions and method of producing α1 antagonistic activity” (Abbott Laboratories, priority 1983, dated 1984)
